Results published in ChEMBL document CHEMBL1145695, “Biologically active acylglycerides from the berries of saw-palmetto (Serenoa repens)” (J Nat Prod, 1997).
In brackets after ≈: the same amount, converted by molar mass.

How the values were obtained:
MIA PaCa-2 = test: Cytotoxicity against human MIAPaCa2 cells after 7 days by MTT assay; assay type: functional; conditions: MIA PaCa-2, 168 h, read-out: ED50 (the source's name)
A498 = test: Cytotoxicity against human A498 cells after 7 days by MTT assay; assay type: functional; conditions: A498, 168 h, read-out: ED50 (the source's name)
PC-3 = test: Cytotoxicity against human PC3 cells after 7 days by MTT assay; assay type: functional; conditions: PC-3, 168 h, read-out: ED50 (the source's name)
[1] = Toxicity against brine shrimp; assay type: organism-based; conditions: artemia, in vivo

Compound	EC50 (MIA PaCa-2)	EC50 (A498)	EC50 (PC-3)	LC50 [1]
CCCCCCCCCCCCCC(=O)OCC(O)CO (stereo unspecified)	1.87 µg/mL (≈ 6.18 µM)	3.58 µg/mL (≈ 11.8 µM)	8.84 µg/mL (≈ 29.2 µM)	53.3 µg/mL (≈ 176 µM)
COc1cccc2c1C(=O)c1c(O)c3c(c(O)c1C2=O)C[C@@](O)(C(=O)CO)C[C@@H]3O[C@H]1C[C@H](N)[C@H](O)[C@H](C)O1 [DOXORUBICIN]	0.0392 µg/mL (≈ 0.0721 µM)	0.0122 µg/mL (≈ 0.0224 µM)	0.0119 µg/mL (≈ 0.0219 µM)	–
CCCCCCCCCCCC(=O)OCC(O)CO (stereo unspecified) [GLYCEROL MONOLAURATE]	2.33 µg/mL (≈ 8.49 µM)	3.77 µg/mL (≈ 13.7 µM)	23.3 µg/mL (≈ 84.8 µM)	79.2 µg/mL (≈ 289 µM)
